Source: the Bradley open melting point set (2014)
Values joined by “and” are separate entries in the source; they are usually repeats but may differ in a detail not shown here. Equal values may be shown once. Where a name gives a salt, the structure may show the parent alone.

Compound	melting point
C=C[C@H]1C[N@@]2CC[C@H]1C[C@H]2[C@H](O)c1ccnc2ccccc12 [cinchonidine]	204 °C
C=C[C@H]1C[N@@]2CC[C@H]1C[C@@H]2[C@@H](O)c1ccnc2ccccc12 [cinchonine]	258 °C
O=C(O)/C=C/c1ccccc1 [cinnamic acid]	133 °C
ClC/C=C/c1ccccc1 [cinnamyl chloride]	7 °C
OCC=Cc1ccccc1 [cinnamyl_alcohol]	34 °C
O=C(O)[C@H]1CCCC[C@H]1C(=O)O [cis-1,2-cyclohexanedicarboxylic acid]	191 °C
C[C@H]1CC[C@@H](C)CC1 [cis-1,4-dimethylcyclohexane]	-87 °C
OC/C=C\CO [cis-2-butene-1,4-diol]	7 °C
C/C=C\CC [cis-2-pentene]	-151 °C
O=C1OC(=O)C2C3C=CC(C3)C12 (stereo not drawn) [cis-5-norbornene-endo-2,3-dicarboxylic anhydride]	166 °C
C1CC[C@H]2CCCC[C@H]2C1 [cis-Decahydronaphthalene]	-43 °C
C1CC[C@H]2CCCC[C@H]2C1 [cis-decahydronaphthalene]	-43 °C
CC1=CC(=O)OC1=O [citraconic anhydride]	8 °C
COc1cc(N)c(Cl)cc1C(=O)NC1CCN(Cc2ccccc2)CC1 [clebopride]	194 °C
Clc1ccc(cc1)NC3=CC4=Nc2ccccc2N(C4=C/C3=NC(C)C)c5ccc(Cl)cc5 [clofazimine]	211 °C
Clc1ccccc1C(c1ccccc1)(c1ccccc1)n1ccnc1 [clotrimazole]	147 °C
CN1CCN(C2=Nc3cc(Cl)ccc3Nc3ccccc32)CC1 [clozapine]	184 °C
COc1ccc2c3c1O[C@H]1[C@@H](O)C=C[C@H]4[C@@H](C2)N(C)CC[C@@]341 [codeine]	158 °C
COc1cc2c(c(OC)c1OC)-c1ccc(OC)c(=O)cc1[C@@H](NC(C)=O)CC2 [colchicine]	146 °C
CC(=O)OCC(=O)[C@@]1(O)CC[C@H]2[C@@H]3CCC4=CC(=O)CC[C@]4(C)[C@H]3C(=O)C[C@@]21C [cortisone acetate]	222 °C
O=C(O)c1cc2ccccc2oc1=O [coumarin-3-carboxylic acid]	192 °C
N#CN [cyanamide]	45 °C
N#CCC(=O)NN [cyanoacetic acid hydrazide]	108 °C
OC1CCCCC1 [cyclohexanol]	21 °C
OC1CCCCCCC1 [cyclooctanol]	15 °C
O=C1CCCCCCC1 [cyclooctanone]	40 °C

Compound	melting point
O=C1CCCC1 [cyclopentanone]	-51 °C
C1=CCCC1 [cyclopentene]	-135 °C
OB(O)C1CC1 [cyclopropylboronic acid]	93 °C
CC1CC1 [cyclopropylmethane]	-177 °C
CN1CCC(=C2c3ccccc3C=Cc3ccccc32)CC1 [cyproheptadine]	113 °C
C[C@@H](N)C(=O)O [d-alanine]	291 °C
CN(C)c1cccc2c(S(=O)(=O)Cl)cccc12 [dansyl chloride]	72 °C
BBBBBBBBBB [decaborane]	101 °C
O=C(c1c(F)c(F)c(F)c(F)c1F)c1c(F)c(F)c(F)c(F)c1F [decafluorobenzophenone]	93 °C
Fc1c(F)c(F)c(-c2c(F)c(F)c(F)c(F)c2F)c(F)c1F [decafluorobiphenyl]	68 °C
C[Si]1(C)O[Si](C)(C)O[Si](C)(C)O[Si](C)(C)O[Si](C)(C)O1 [decamethylcyclopentasiloxane]	-44 °C
CCCCCCCCCC [decane]	-30 °C and -29.8 °C
CCCCCCCCCC(=O)O [decanoic acid]	31 °C
CCCCCCCCCC#N [decanonitrile]	-15 °C
CC(=O)C1C(=O)C=C(C)OC1=O (centres undefined) [dehydroacetic acid]	111 °C
O=C4\C=C2/[C@]([C@H]1CC[C@@]3([C@@H](C(=O)CO)CC[C@H]3[C@@H]1CC2)C)(C)CC4 [deoxycorticosterone]	142 °C
COc1ccc2c(c1)[C@@]13CCCC[C@@H]1[C@@H](C2)N(C)CC3 [dextromorphan]	110 °C
CCCCCCCCCCNCCCCCCCCCC [di-n-decylamine]	37 °C
CCCCCCCCNCCCCCCCC [di-n-octylamine]	14 °C
CCCNCCC [di-n-propylamine]	-63 °C
CC(C)(C)OC(=O)/N=N/C(=O)OC(C)(C)C [di-tert-butyl azodicarboxylate]	91 °C
COc1ccc(Cc2cnc(N)nc2N)cc1OC [diaveridine]	233 °C
c1ccc2c(c1)ccc1cc3c(ccc4ccccc43)cc12 [dibenz[a,h]anthracene]	270 °C
CN(C)CCN1C(=O)c2ccccc2N(C)c2ccccc21 [dibenzepin]	116 °C
c1ccc2c(c1)ccc1cc3c(ccc4ccccc43)cc12 [dibenzo[a,h]anthracene]	266 °C
O=C(/N=N/C(=O)OCc1ccccc1)OCc1ccccc1 [dibenzyl azodicarboxylate]	45 °C

Compound	melting point
c1ccc(COCc2ccccc2)cc1 [dibenzyl ether]	4 °C
CCCCOc1cc(C(=O)NCCN(CC)CC)c2ccccc2n1 [dibucaine]	64.5 °C
ClCCl [dichloromethane]	-95 °C
CC(Oc1ccc(Cl)cc1Cl)C(=O)O (centres undefined) [dichlorprop]	118 °C
O=C(O)Cc1ccccc1Nc1c(Cl)cccc1Cl [diclofenac]	157 °C
C1CCC2OCCOCCOC3CCCCC3OCCOCCOC2C1 (centres undefined) [dicyclohexano-18-crown-6]	50 °C
C1CCC(NC2CCCCC2)CC1 [dicyclohexylamine]	-2 °C
c1ccc(P(C2CCCCC2)C2CCCCC2)cc1 [dicyclohexylphenylphosphine]	60 °C
OCCNCCO [diethanolamine]	29 °C
CCOC(=O)c1cc(C)nn1C(=O)OCC [diethyl 3-methyl-1H-pyrazole-1,5-dicarboxylate]	81 °C
CCOC(=O)c1cc(C(=O)OCC)c([N+](=O)[O-])cc1[N+](=O)[O-] [diethyl 4,6-dinitrobenzene-1,3-dicarboxylate]	124 °C
CCOC(=O)C1=C(C(=O)OCC)C(C)N=N1 (centres undefined) [diethyl 5-methyl-1H-pyrazole-3,4-dicarboxylate]	99 °C
CCOC(=O)C(=Nn1nnc2ccccc21)C(=O)OCC [diethyl (1h-benzotriazol-1-yl)iminomalonate]	100 °C
CCOC(=O)/C=C/c1cccc(/C=C/C(=O)OCC)c1 [diethyl (2E,2'E)-3,3'-benzene-1,3-diylbisprop-2-enoate]	54 °C
CCOC(=O)C#CC(=O)OCC [diethyl acetylenedicarboxylate]	2 °C
CCOC(=O)C(NC(=O)c1ccccc1)C(=O)OCC [diethyl benzamidomalonate]	63 °C
CCOC(=O)C(NC=O)C(=O)OCC [diethyl formamidomalonate]	53 °C
CCOC(=O)c1ccc(C(=O)OCC)cc1 [diethyl terephthalate]	45 °C
CCOC(=O)c1ccccc1C(=O)OCC [diethyl_phthalate]	-3 °C
CCOC(=O)CCC(=O)OCC [diethyl_succinate]	-20 °C
O=C(Cc1ccc(-c2ccccc2)cc1)Nc1ccccn1 [difenpiramide]	122 °C
O=C(O)c1cc(-c2ccc(F)cc2F)ccc1O [diflunisal]	210 °C
ICI [diiodomethane]	6 °C
CC(C)C(=O)C(C)C [diisopropyl ketone]	-69 °C
CC(C)NC(C)C [diisopropylamine]	-61 °C
COCOC [dimethoxymethane]	-105 °C

Compound	melting point
COC(=O)CCCCC(=O)OC [dimethyl adipate]	8 °C
COC(=O)c1ccc(/C=C\c2ccc(C(=O)OC)cc2)cc1 [dimethyl cis-stilbene-4,4'-dicarboxylate]	113 °C
CSSC [dimethyl disulfide]	-85 °C
COC(=O)/C=C/C(=O)OC [dimethyl fumarate]	104 °C
COC(=O)c1cccc(C(=O)OC)c1 [dimethyl isophthalate]	69 °C
COC(=O)C(=O)OC [dimethyl oxalate]	52 °C
COC(=O)c1ccccc1C(=O)OC [dimethyl phthalate]	5 °C
CS(C)=O [dimethyl sulfoxide]	18 °C
COC(=O)/C=C/C(=O)OC [dimethyl_fumarate]	104 °C
CS(C)=O [dimethyl_sulfoxide]	18 °C
Cc1ncc([N+](=O)[O-])n1C [dimetridazole]	140 °C
O=C(Oc1ccccc1)Oc1ccccc1 [diphenyl carbonate]	79 °C
c1ccc(Oc2ccccc2)cc1 [diphenyl ether]	28 °C
O=C(O)C(c1ccccc1)c1ccccc1 [diphenylacetic acid]	147 °C
C(#Cc1ccccc1)c1ccccc1 [diphenylacetylene]	60 °C
c1ccc(Nc2ccccc2)cc1 [diphenylamine]	52 °C and 53.5 °C and 54 °C
c1ccc(Cc2ccccc2)cc1 [diphenylmethane]	25 °C
CCN(CC)C(=S)SSC(=S)N(CC)CC [disulfiram]	70 °C
CCCCCCCCCCCC [dodecane]	-10 °C
CCCCCCCCCCCC(=O)O [dodecanoic acid]	44 °C
Cn1c(=O)c2c(ncn2CC2OCCO2)n(C)c1=O [doxofylline]	144 °C
CCCCCCCCCCCCS[C@H](C(=O)Nc1cc(C)c(O)c(C)c1C)c1ccccc1 [eflucimibe]	-144 °C
CCCCCCCC/C=C/CCCCCCCC(=O)O [elaidic acid]	43 °C
O=C1[C@@H]2[C@H](C(=O)N1O)[C@@H]1C=C[C@H]2C1 [endo-n-hydroxy-5-norbornene-2,3-dicarboximide]	168 °C
CN[C@@H](C)[C@H](O)c1ccccc1 [ephedrine]	34 °C
O=C(O)CSCC(=O)NC1CCSC1=O (centres undefined) [erdosteine]	156 °C
